Data reported in patent EP4715056A1, “BIO-BASED TRANS-ACONITATE, PREPARATION METHOD THEREFOR AND USE THEREOF” (Qingdao Institute of Bioenergy and Bioprocess Technology, …, priority 2023, dated 2024).
Structures can show the parent of a compound that is named as a salt.

Columns and labels:
Format in all cases: physicochemical
[1] = Glass transition temperature (dynamic mechanical analyzer); settings: PVC plastic with 35 parts plasticizer; -40 to 80°C, 3°C/min, 1 Hz
Protocol: (§1) The aconitates and tributyl citrate prepared in the above examples and comparative examples were added as plasticizers to PVC resin to obtain PVC plastics. The PVC plastics include 100 parts of PVC resin, 35 parts of plasticizer, 2 parts of oxidized polyethylene wax, and 5 parts of octyltin maleate. The above raw materials were mixed and prepared using the same mixing process to obtain finished PVC products. The performance tests were performed on different plasticizers and the obtained PVC finished products in the above examples and comparative examples. […] Three points were selected for each group of samples, each point was tested once, and a median value was taken. • 2. […] Compatibility: tests were performed using a water value method. Since water molecules are polar, the compatibility between the plasticizer and water can characterize the compatibility between the plasticizer and polar materials (PVC, PLA, and nitrile rubber). When a certain plasticizer has good compatibility with water, it has good compatibility with PVC, and vice versa. In the experiment, 2.5 g of plasticizer and 25 g of acetone were added to a beaker, titrated with a burette filled with deionized water, and agitated while titrating until turbidity appears, and the volume of deionized water consumed was recorded. • 4. Glass transition temperature (Tg): the glass transition temperature was tested using a dynamic mechanical analyzer. Test conditions: nitrogen was taken as the carrier gas, at a test temperature range of -40 to 80°C, a heating rate of 3°C/min, and a frequency of 1 Hz.

[2] = Compatibility (water value method); settings: 2.5 g plasticizer and 25 g acetone titrated with deionized water until turbidity; Table 5
Protocol: as §1

[3] = Acid value (KOH titration); settings: aconitate/citrate products, Table 4
Protocol: The aconitates and citrates prepared in the above examples and comparative examples were tested for acid value, purity, chromaticity, yield, triester conversion rate, and water content. […] The mixture was neutralized with 0.02 mol·L^-1 potassium hydroxide aqueous solution until a faint pink color appears, and the consumed volume Vo was recorded. 1 g of the sample (accurate to 0.01 g) was weighed using a ground-neck conical flask, then one portion of the above neutralized solution was added. After the sample was completely dissolved, the sample was titrated with 0.02 mol·L^-1 potassium hydroxide-ethanol standard titration solution (the titration should be completed within 30 seconds) until a faint pink color appeared and persisted for 5 seconds without fading, which was considered as an end point. The consumed volume V was recorded. […] Chromatographic column: C18 column; injector: 10 µL micro-syringe; solvent: acetonitrile (HPLC grade); acquisition time: 15 min; mobile phase: 80% acetonitrile (HPLC grade) and 20% deionized water; injection volume: 1 µL; wavelength: 230 nm.

[4] = Residual amounts of fat-soluble and water-soluble pigments (HPLC); settings: aconitate/citrate products, Table 4
Protocol: 7. Residual amounts of fat-soluble pigments and water-soluble pigments: • a high-performance liquid chromatograph (HPLC) was used, and the instrument sensitivity and stability of the detector should comply with the provisions of GB/T 16631-2008. Chromatographic column: C18 column; injector: 10 µL micro-syringe; solvent: acetonitrile (HPLC grade); acquisition time: 15 min; mobile phase: 80% acetonitrile (HPLC grade) and 20% deionized water; injection volume: 1 µL; wavelength: 230 nm.
Test: the instrument was adjusted according to the above provisions. After the baseline was stable, 0.2 µL of the sample was injected using a micro-syringe, and the integrator or chromatographic workstation was started at the same time. A pigment concentration-integral area standard curve was established by testing the integral areas of pigments with different concentrations. When the pigment content was measured, the corresponding pigment integral area was automatically given by the instrument, and the pigment concentration was obtained by comparing with the standard curve. The ratio of the pigment concentration to the sample concentration is the pigment content.

[5] = Water content (Karl Fischer moisture meter); settings: aconitate/citrate products, Table 4
From the text: 6. Water content: a Karl Fischer moisture meter is used to test the water content (retained to two decimal places).

[6] = Tensile properties (GB/T 1040-2006): tensile modulus at 100%, elongation at break, elastic modulus; settings: PVC plastic with 35 parts plasticizer; 50 mm/min, 25°C
Protocol: as §1

[7] = Hardness (Shore hardness tester, GB/T 531-2008); settings: PVC plastic: 100 parts PVC resin, 35 parts plasticizer, 2 parts oxidized polyethylene wax, 5 parts octyltin maleate
Protocol: as §1, with “The PVC plastics include 100 parts of PVC resin, 35 parts of plasticizer, 2 parts of oxidized polyethylene wax, and 5 parts of octyltin maleate.” left out

[8] = Chromaticity (platinum-cobalt colorimetry); settings: aconitate/citrate products, Table 4; colour comparison at 25°C
Protocol: 3. Chromaticity: preparation of 500# platinum-cobalt colorimetric standard stock solution: 1.2450 g of potassium chloroplatinate and 1.0000 g of cobalt chloride were weighed, with an accuracy of 0.0002 g, the mixture was dissolved in 100 mL of hydrochloric acid, and then diluted to 1000 mL with distilled water. This solution is just the 500# colorimetric standard comparison solution.
Preparation of colorimetric standards below 500#: different amounts of the 500# stock solution was prepared, and diluted with distilled water to the volume of a colorimetric tube to prepare colorimetric standard solutions of any number. The calculation formula is as follows: V = (N×V1)/500 [formula]
In the formula, V is the volume of the 500# standard stock solution taken to prepare the N# colorimetric standard solution, in mL; V1 is the volume of the colorimetric tube used, in mL; and N is the number of the colorimetric standard solution to be prepared.
Color comparison determination was performed at 25°C.

## CCCCOC(=O)C=C(CC(=O)OCCCC)C(=O)OCCCC [Comparative Example 1, tributyl aconitate, reference compound]
[1]
  Tg: 30.7 °C
[2]
  Compatibility: 10.8 mL
[3]
  Acid value: 0.05 KOH/g
[4]
  Residual amounts of fat-soluble pigments: 16424 ppm
  Residual amounts of water-soluble pigments: 13861 ppm
[5]
  Water content: 0.03%
[6]
  Elastic modulus: 192.2 MPa
  Elongation at break: 223.2%
  Tensile modulus at 100%: 17.9 MPa
[7]
  Hardness/Shore D: 46 Shore D
[8]
  Chromaticity: >500 Pt-Co

## CCCCOC(=O)C=C(CC(=O)OCCCC)C(=O)OCCCC [Comparative Example 2, tributyl aconitate, reference compound]
[1]
  Tg: 28.4 °C
[2]
  Compatibility: 12.5 mL
[3]
  Acid value: 0.05 KOH/g
[4]
  Residual amounts of fat-soluble pigments: 2406 ppm
  Residual amounts of water-soluble pigments: 2248 ppm
[5]
  Water content: 0.05%
[6]
  Elastic modulus: 187.3 MPa
  Elongation at break: 231.4%
  Tensile modulus at 100%: 17.4 MPa
[7]
  Hardness/Shore D: 45 Shore D
[8]
  Chromaticity: 120 Pt-Co

## CCCCOC(=O)C=C(CC(=O)OCCCC)C(=O)OCCCC [Comparative Example 3, tributyl aconitate, reference compound]
[1]
  Tg: 28.7 °C
[2]
  Compatibility: 12.5 mL
[3]
  Acid value: 0.05 KOH/g
[4]
  Residual amounts of fat-soluble pigments: 2864 ppm
  Residual amounts of water-soluble pigments: 2698 ppm
[5]
  Water content: 0.04%
[6]
  Elastic modulus: 186.7 MPa
  Elongation at break: 233.6%
  Tensile modulus at 100%: 17.4 MPa
[7]
  Hardness/Shore D: 45 Shore D
[8]
  Chromaticity: 150 Pt-Co

## CCCCOC(=O)CC(O)(CC(=O)OCCCC)C(=O)OCCCC [Comparative Example 4, tributyl citrate, reference compound]
[1]
  Tg: 39.7 °C
[2]
  Compatibility: 13.9 mL
[3]
  Acid value: 0.05 KOH/g
[4]
  Residual amounts of fat-soluble pigments: 3054 ppm
  Residual amounts of water-soluble pigments: 2156 ppm
[5]
  Water content: 0.04%
[6]
  Elastic modulus: 274.8 MPa
  Elongation at break: 201.3%
  Tensile modulus at 100%: 18.1 MPa
[7]
  Hardness/Shore D: 51 Shore D
[8]
  Chromaticity: 150 Pt-Co

## CCCCOC(=O)CC(O)(CC(=O)OCCCC)C(=O)OCCCC [Comparative Example 5, tributyl citrate, reference compound]
[1]
  Tg: 37.8 °C
[2]
  Compatibility: 14.3 mL
[3]
  Acid value: 0.05 KOH/g
[4]
  Residual amounts of fat-soluble pigments: 852 ppm
  Residual amounts of water-soluble pigments: 653 ppm
[5]
  Water content: 0.03%
[6]
  Elastic modulus: 226.4 MPa
  Elongation at break: 213.4%
  Tensile modulus at 100%: 17.6 MPa
[7]
  Hardness/Shore D: 48 Shore D
[8]
  Chromaticity: 50 Pt-Co

## CCCCOC(=O)C=C(CC(=O)OCCCC)C(=O)OCCCC [Example 19, tributyl aconitate]
[1]
  Tg: 27.6 °C
[2]
  Compatibility: 16.7 mL
[3]
  Acid value: 0.05 KOH/g
[4]
  Residual amounts of fat-soluble pigments: 431 ppm
  Residual amounts of water-soluble pigments: 405 ppm
[5]
  Water content: 0.03%
[6]
  Elastic modulus: 74.6 MPa
  Elongation at break: 260.1%
  Tensile modulus at 100%: 14.6 MPa
[7]
  Hardness/Shore D: 41 Shore D
[8]
  Chromaticity: 30 Pt-Co

## CCCCC(CC)COC(=O)C=C(CC(=O)OCC(CC)CCCC)C(=O)OCC(CC)CCCC (stereo not shown) [Example 20, tri(2-ethylhexyl) aconitate]
[1]
  Tg: 42.5 °C
[2]
  Compatibility: 10.7 mL
[3]
  Acid value: 0.05 KOH/g
[4]
  Residual amounts of fat-soluble pigments: 634 ppm
  Residual amounts of water-soluble pigments: 610 ppm
[5]
  Water content: 0.05%
[6]
  Elastic modulus: 301.6 MPa
  Elongation at break: 181.6%
  Tensile modulus at 100%: 19.7 MPa
[7]
  Hardness/Shore D: 54 Shore D
[8]
  Chromaticity: 30 Pt-Co

## CCOC(=O)C=C(CC(=O)OCC)C(=O)OCC [Example 21, triethyl aconitate]
[1]
  Tg: 28.2 °C
[2]
  Compatibility: 18.4 mL
[3]
  Acid value: 0.05 KOH/g
[4]
  Residual amounts of fat-soluble pigments: 385 ppm
  Residual amounts of water-soluble pigments: 328 ppm
[5]
  Water content: 0.02%
[6]
  Elastic modulus: 135.5 MPa
  Elongation at break: 243.6%
  Tensile modulus at 100%: 15.8 MPa
[7]
  Hardness/Shore D: 43 Shore D
[8]
  Chromaticity: 30 Pt-Co

## CCCCOC(=O)C=C(CC(=O)OCCCC)C(=O)OCCCC [Example 23, tributyl aconitate]
[1]
  Tg: 28.4 °C
[2]
  Compatibility: 13.1 mL
[3]
  Acid value: 0.05 KOH/g
[4]
  Residual amounts of fat-soluble pigments: 1356 ppm
  Residual amounts of water-soluble pigments: 842 ppm
[5]
  Water content: 0.03%
[6]
  Elastic modulus: 128.7 MPa
  Elongation at break: 239.4%
  Tensile modulus at 100%: 15.6 MPa
[7]
  Hardness/Shore D: 43 Shore D
[8]
  Chromaticity: 60 Pt-Co

## CCCCOC(=O)C=C(CC(=O)OCCCC)C(=O)OCCCC [Example 24, tributyl aconitate]
[1]
  Tg: 28.6 °C
[2]
  Compatibility: 13.1 mL
[3]
  Acid value: 0.05 KOH/g
[4]
  Residual amounts of fat-soluble pigments: 1386 ppm
  Residual amounts of water-soluble pigments: 420 ppm
[5]
  Water content: 0.02%
[6]
  Elastic modulus: 131.0 MPa
  Elongation at break: 242.7%
  Tensile modulus at 100%: 15.7 MPa
[7]
  Hardness/Shore D: 43 Shore D
[8]
  Chromaticity: 60 Pt-Co

## CCCCOC(=O)C=C(CC(=O)OCCCC)C(=O)OCCCC [Example 25, tributyl aconitate]
[1]
  Tg: 28.2 °C
[2]
  Compatibility: 12.7 mL
[3]
  Acid value: 0.05 KOH/g
[4]
  Residual amounts of fat-soluble pigments: 865 ppm
  Residual amounts of water-soluble pigments: 454 ppm
[5]
  Water content: 0.03%
[6]
  Elastic modulus: 156.4 MPa
  Elongation at break: 226.5%
  Tensile modulus at 100%: 17.2 MPa
[7]
  Hardness/Shore D: 45 Shore D
[8]
  Chromaticity: 50 Pt-Co
